Patent US20230355598A1, “PYRROLIDINE COMPOUNDS TO TREAT XERODERMA PIGMENTOSUM” (Clinuvel (UK) Ltd., priority 2020, published 2023)

Test system: Melanocytes
Test: Measurement of UV-induced apoptosis by Annexin Va staining
Type: cell-based
Details: melanocytes in medium lacking BPE; treated 4 days prior to and 24 h after UV dose 105 mJ/cm^2; vs control
Description: Melanocytes were treated with the different concentrations of the pyrrolidine compound for 4 days prior to, and 24 h after exposure to a UV dose (105 mJ/cm^2), then stained for Annexin Va staining. The data were collected as percent increase above control, with triplicate dishes included in each group. Effect of the pyrrolidine compound vs control on the UV-induced apoptosis were determined in melanocyte strains. Floating as well as attached cells were harvested and stained for Annexin V, and analyzed by flow cytometry.

COC[C@H]1CN(C(=O)[C@]2(F)CN(C3CCCC3)C[C@H]2c2ccc(OC)cc2)C[C@@H]1c1ccc(C(F)(F)F)cc1N1CCC(C(=O)O)CC1 [Dersimelagon, 1-{2-[(3S,4R)-1-{[(3R,4R)-1-cyclopentyl-3-fluoro-4-(4-methoxyphenyl)pyrrolidin-3-yl]carbonyl}-4-(methoxymethyl)pyrrolidin-3-yl]-5-(trifluoromethyl)phenyl}piperidine-4-carboxylic acid]
Effect on UV-induced apoptosis (Annexin V staining, flow cytometry): beneficial anti-apoptotic effects
